Measurements: US9271960B2, “Tetrahydrocarbazoles as active agents for inhibiting VEGF production by translational control” (PTC Therapeutics, Inc., priority 2004, dated 2016)
Like-named read-outs stand apart in the source and are kept apart here.

Test system: VEGF
Experiment: Hypoxia-inducible endogenous VEGF expression ELISA in HeLa cells
Type: cell-based
Conditions: VEGF protein by ELISA
Method: The ability of compounds of the invention to modulate hypoxia-inducible endogenous VEGF expression is analyzed as follows. VEGF protein levels are monitored by an ELISA assay (R&D Systems). Briefly, HeLa cells are cultured for 24-48 hours under hypoxic conditions (1% O2, 5% CO2, balanced with nitrogen) in the presence or absence of a compound of the invention. The conditioned media is then assayed by ELISA, and the concentration of VEGF is calculated from the standard ELISA curve of each assay.
A dose-response analysis is performed using the ELISA assay and conditions described above. A series of different concentrations (e.g., seven) are analyzed. In parallel, a dose-response cytotoxicity assay is performed using Cell Titer Glo (Promega) under the same conditions as the ELISA to ensure that the inhibition of VEGF expression is not due to cytotoxicity. Dose-response curves are plotted using percentage inhibition versus concentration of the compound, and EC50 and CC50 values are generated for each compound with the maximal inhibition set as 100% and the minimal inhibition as 0%.
Compounds 156-188 in Table 1 are commercially available. In Table 1, each of the represented compounds is followed by one to five stars.

[1] = purchased compounds 156-188, hypoxic conditions, read-out: ELISA Activity
[2] = purchased compounds 156-188, hypoxic conditions, read-out: ELISA EC50
[3] = Homo sapiens, HeLa, compounds 1-155, hypoxic conditions (1% O2), read-out: ELISA Activity

EC50 [3] [nM]	Compound	other results
–	3-(8-Cyclohexyl-1,2,3a,4,5,6- hexahydro-pyrazino[3,2,1- jk]carbazol-3-yl)-propionic acid [Compound 183]	EC50 [1]: > 1000 nM; EC50 [2]: > 10000 nM
–	3-[(2,3,4,9-Tetrahydro- 1H-carbazol-1-ylamino)- methylene]-1,3-dihydro- indol-2-one [Compound 158]	EC50 [1]: 200 to 1000 nM; EC50 [2]: 267 nM
< 10	Brc1ccc2[nH]c3c(c2c1)CCCC3n1cc2ccsc2c1 (stereo not drawn) [Compound 1, 6-Bromo-1-thieno[2,3-c]pyrrol-5-yl-2,3,4,9-tetrahydro-1H-carbazole]	–
< 10	Brc1ccc2[nH]c3c(c2c1)CCCC3Nc1ccccc1 (stereo not drawn) [Compound 2, (6-Bromo-2,3,4,9-tetrahydro-1H-carbazol-1-yl)-phenyl-amine]	–
< 10	Clc1ccc(NC2CCCc3c2[nH]c2ccc(Br)cc32)cc1 (stereo not drawn) [Compound 3, (6-Bromo-2,3,4,9-tetrahydro-1H-carbazol-1-yl)-(4-chloro-phenyl)-amine]	–
< 10	COc1ccc(NC2CCCc3c2[nH]c2ccc(Br)cc32)cc1 (stereo not drawn) [Compound 4, (6-Bromo-2,3,4,9-tetrahydro-1H-carbazol-1-yl)-(4-methoxy-phenyl)-amine]	–
< 10	O=C1c2sccc2CN1C1CCCc2c1[nH]c1ccc(Br)cc21 (stereo not drawn) [Compound 5, 5-(6-Bromo-2,3,4,9-tetrahydro-1H-carbazol-1-yl)-4,5-dihydro-thieno[2,3-c]pyrrol-6-one]	–
< 10	FC(F)(F)c1ccc(NC2CCCc3c2[nH]c2ccc(Br)cc32)cc1 (stereo not drawn) [Compound 6, (6-Bromo-2,3,4,9-tetrahydro-1H-carbazol-1-yl)-(4-trifluoromethyl-phenyl)-amine]	–
< 10	Brc1ccc2[nH]c3c(c2c1)CCCC3N1Cc2ccccc2C1 (stereo not drawn) [Compound 7, 6-Bromo-1-(1,3-dihydro-isoindol-2-yl)-2,3,4,9-tetrahydro-1H-carbazole]	–
< 10	CC(C)c1ccc(NC2CCCc3c2[nH]c2ccc(Br)cc32)cc1 (stereo not drawn) [Compound 8, (6-Bromo-2,3,4,9-tetrahydro-1H-carbazol-1-yl)-(4-isopropyl-phenyl)-amine]	–
< 10	Brc1ccc2[nH]c3c(c2c1)CCCC3Nc1ccc(Oc2ccccc2)cc1 (stereo not drawn) [Compound 9, (6-Bromo-2,3,4,9-tetrahydro-1H-carbazol-1-yl)-(4-phenoxy-phenyl)-amine]	–
< 10	COc1cccc(NC2CCCc3c2[nH]c2ccc(Br)cc32)c1 (stereo not drawn) [Compound 10, (6-Bromo-2,3,4,9-tetrahydro-1H-carbazol-1-yl)-(3-methoxy-phenyl)-amine]	–
< 10	Cc1ccc2[nH]c3c(c2c1)CCCC3Nc1ccccc1 (stereo not drawn) [Compound 11, (6-Methyl-2,3,4,9-tetrahydro-1H-carbazol-1-yl)-phenyl-amine]	–
< 10	Fc1cccc(NC2CCCc3c2[nH]c2ccc(Br)cc32)c1 (stereo not drawn) [Compound 12, (6-Bromo-2,3,4,9-tetrahydro-1H-carbazol-1-yl)-(3-fluoro-phenyl)-amine]	–
< 10	CC(=O)n1c2c(c3cc(Br)ccc31)CCCC2n1cccc1 (stereo not drawn) [Compound 13, 1-(6-Bromo-1-pyrrol-1-yl-1,2,3,4-tetrahydro-carbazol-9-yl)ethanone]	–
< 10	FC(F)(F)c1ccc2[nH]c3c(c2c1)CCCC3Nc1ccccc1 (stereo not drawn) [Compound 14, Phenyl-(6-trifluoromethyl-2,3,4,9-tetrahydro-1H-carbazol-1-yl)-amine]	–
< 10	Brc1ccc2[nH]c3c(c2c1)CCCC3c1ccccc1 (stereo not drawn) [Compound 15, 6-Bromo-1-phenyl-2,3,4,9-tetrahydro-1H-carbazole]	–
< 10	COc1cccc(C2CCCc3c2[nH]c2ccc(Br)cc32)c1 (stereo not drawn) [Compound 16, 6-Bromo-1-(3-methoxy-phenyl)-2,3,4,9-tetrahydro-1H-carbazole]	–
< 10	Fc1ccccc1NC1CCCc2c1[nH]c1ccc(Br)cc21 (stereo not drawn) [Compound 17, (6-Bromo-2,3,4,9-tetrahydro-1H-carbazol-1-yl)-(2-fluoro-phenyl)-amine]	–
< 10	Brc1ccc2[nH]c3c(c2c1)CCCC3Nc1ccc2c(c1)OCO2 (stereo not drawn) [Compound 18, Benzo[1,3]dioxol-5-yl-(6-bromo-2,3,4,9-tetrahydro-1H-carbazol-1-yl)-amine]	–
< 10	FC(F)(F)Oc1ccc(NC2CCCc3c2[nH]c2ccc(Br)cc32)cc1 (stereo not drawn) [Compound 19, (6-Bromo-2,3,4,9-tetrahydro-1H-carbazol-1-yl)-(4-trifluoromethoxy-phenyl)-amine]	–
< 10	Clc1cccc(NC2CCCc3c2[nH]c2ccc(Br)cc32)c1 (stereo not drawn) [Compound 20, (6-Bromo-2,3,4,9-tetrahydro-1H-carbol-1-yl)-(3-chloro-phenyl)-amine]	–

EC50 [3] [nM]	Compound	other results
< 10	O=C(NC1CCCc2c1[nH]c1ccc(Br)cc21)c1ccccc1 (stereo not drawn) [Compound 21, N-(6-Bromo-2,3,4,9-tetrahydro-1H-carbazol-1-yl)-benzamide]	–
< 10	O=C(NC1CCCc2c1[nH]c1ccc(Br)cc21)c1cccc(Cl)c1 (stereo not drawn) [Compound 22, N-(6-Bromo-2,3,4,9-tetrahydro-1H-carbazol-1-yl)-3-chloro-benzamide]	–
10 to 40	Cc1cc(C)cc(NC2CCCc3c2[nH]c2ccc(Br)cc32)c1 (stereo not drawn) [Compound 23, (6-Bromo-2,3,4,9-tetrahydro-1H-carbazol-1-yl)-(3,5-dimethyl-phenyl)-amine]	–
10 to 40	Fc1ccc(NC2CCCc3c2[nH]c2ccc(Br)cc32)cc1 (stereo not drawn) [Compound 24, (6-Bromo-2,3,4,9-tetrahydro-1H-carbazol-1-yl)-(4-fluoro-phenyl)-amine]	–
10 to 40	O=C1c2ccccc2CN1C1CCCc2c1[nH]c1ccc(Br)cc21 (stereo not drawn) [Compound 25, 2-(6-Bromo-2,3,4,9-tetrahydro-1H-carbazol-1-yl)-2,3-dihydro-isoindol-1-one]	–
10 to 40	COC(=O)c1ccn(C2CCCc3c2[nH]c2ccc(Br)cc32)c1 (stereo not drawn) [Compound 26, 1-(6-Bromo-2,3,4,9-tetrahydro-1H-carbazol-1-yl)-1H-pyrrole-3-carboxylic acid methyl ester]	–
10 to 40	Brc1ccc2[nH]c3c(c2c1)CCCC3NC1CCC(c2ccccc2)CC1 (stereo not drawn) [Compound 27, (6-Bromo-2,3,4,9-tetrahydro-1H-carbazol-1-yl)-(4-phenyl-cyclohexyl)-amine]	–
10 to 40	Brc1ccc2[nH]c3c(c2c1)CCCC3Nc1ccc(-c2ccccc2)cc1 (stereo not drawn) [Compound 28, Biphenyl-4-yl-(6-bromo-2,3,4,9-tetrahydro-1H-carbazol-1-yl)-amine]	–
10 to 40	Clc1ccccc1NC1CCCc2c1[nH]c1ccc(Br)cc21 (stereo not drawn) [Compound 29, (6-Bromo-2,3,4,9-tetrahydro-1H-carbazol-1-yl)-(2-chloro-phenyl)-amine]	–
10 to 40	O=C(NC1CCCc2c1[nH]c1ccc(Br)cc21)c1cccc(Oc2ccccc2)c1 (stereo not drawn) [Compound 30, N-(6-Bromo-2,3,4,9-tetrahydro-1H-carbazol-1-yl)-3-phenoxy-benzamide]	–
10 to 40	Brc1ccc2[nH]c3c(c2c1)CCCC3Nc1cnccn1 (stereo not drawn) [Compound 31, (6-Bromo-2,3,4,9-tetrahydro-1H-carbazol-1-yl)-pyrazin-2-yl-amine]	–
10 to 40	Fc1cccc(NC2CCCc3c2[nH]c2ccc(Br)cc32)c1F (stereo not drawn) [Compound 32, (6-Bromo-2,3,4,9-tetrahydro-1H-carbazol-1-yl)-(2,3-difluoro-phenyl)-amine]	–
10 to 40	Brc1ccc2[nH]c3c(c2c1)CCCCC3Nc1ccccc1 (stereo not drawn) [Compound 33, (2-Bromo-5,6,7,8,9,10-hexahydro-cyclohepta[b]indol-6-yl)-phenyl-amine]	–
10 to 40	FC(F)(F)Oc1ccc2[nH]c3c(c2c1)CCCC3Nc1ccccc1 (stereo not drawn) [Compound 34, Phenyl-(6-trifluoromethoxy-2,3,4,9-tetrahydro-1H-carbazol-1-yl)-amine]	–
40 to 200	O=C(NC1CCCc2c1[nH]c1ccc(Br)cc21)c1ccc(Oc2ccccc2)cc1 (stereo not drawn) [Compound 35, N-(6-Bromo-2,3,4,9-tetrahydro-1H-carbazol-1-yl)-4-phenoxy-benzamide]	–
40 to 200	Clc1ccc(NC2CCCc3c2[nH]c2ccc(Br)cc32)cc1Cl (stereo not drawn) [Compound 36, (6-Bromo-2,3,4,9-tetrahydro-1H-carbazol-1-yl)-(3,4-dichloro-phenyl)-amine]	–
40 to 200	Clc1ccc2[nH]c3c(c2c1)CCCC3n1cccc1 (stereo not drawn) [Compound 37, 6-Chloro-1-pyrrol-1-yl-2,3,4,9-tetrahydro-1H-carbazole]	–
40 to 200	O=Cc1ccn(C2CCCc3c2[nH]c2ccc(Br)cc32)c1 (stereo not drawn) [Compound 38, 1-(6-Bromo-2,3,4,9-tetrahydro-1H-carbazol-1-yl)-1H-pyrrole-3-carbaldehyde]	–
40 to 200	COc1cccc(C(=O)NC2CCCc3c2[nH]c2ccc(Br)cc32)c1OC (stereo not drawn) [Compound 39, N-(6-Bromo-2,3,4,9-tetrahydro-1H-carbazol-1-yl)-2,3-dimethoxy-benzamide]	–
40 to 200	Brc1ccc2[nH]c3c(c2c1)CCCC3Nc1ccc(N2CCOCC2)cc1 (stereo not drawn) [Compound 40, (6-Bromo-2,3,4,9-tetrahydro-1H-carbazol-1-yl)-(4-morpholin-4-yl-phenyl)-amine]	–
40 to 200	O=C1c2ccccc2C(=O)N1C1CCCc2c1[nH]c1ccc(Br)cc21 (stereo not drawn) [Compound 41, 2-(6-Bromo-2,3,4,9-tetrahydro-1H-carbazol-1-yl)-isoindole-1,3-dione]	–
